One series concerns the target D2 dopamine receptor (Rattus norvegicus (Rat), UniProt P61169). Kind of series: Affinity on dopamine D2 receptor, competition with [3H] Spiperone. Type of series: binding. More on the design: D2 receptor inhibition ratio (%): concentration or dose not given beside the values. As to the method: (§1) (1). Determination of the Affinity of Hexahydrodibenzo[a,g]Quinolizine Compound of General Formula I and Derivatives Thereof on Dopamine D1, Dopamine D2, 5-HT1A, and 5-HT2A Receptor.
(§2) 1) The Experimental Method
(§3) Different concentrations (10^−5 M-10^−11 M) of the compound of the invention and corresponding isotope receptor ligand as well as receptor protein were loaded into the reaction tube and incubated in 30° C. water bath for 60 minutes. The reaction was terminated in a refrigerator. The reaction mixture was put in a Millipore filter (millipore) cell sample collector, filtered through suction filtration using GF/C glass fiber filter paper, and dried. The resulting sample was placed into 0.5 mL tube. 500 μL liquid scintillation fluid was added and intensity of radioactivity was determined by counting.
(§4) (1) Construction of receptor and materials for cell culture: Escherichia coli. DH5α strain; insect virus transfer vector pVL1393 plasmid; BaculoGold linear Chinese baculovirus DNA, purchased from ParMingen company; mkD1RcDNA; rD2R cDNA; various restriction endonucleases, TaqDNA polymerase, T4 ligase, etc., LB medium; insect cell culture TNM-FH.
(§5) (2) the Experimental Materials for Receptor Binding
(§6) Firstly, the above […] are dissolved in DMSO and then diluted with double distilled water to the appropriate concentration (10^−5 M-10^−11 M).
(§7) (+) Butaclamo purchased from RBI company, GF/C glass fiber filter paper purchased from Whatman Co., scintillation fluid (dopamine D1, D2 receptors)/liposoluble scintillation fluid (5-HT1A, 5-HT2A receptor), Beckman LS-6500 multi-function liquid scintillation counter.

Another series addresses dopamine D1 receptor (Macaca mulatta (Rhesus macaque), UniProt O77680). As to the kind of experiment: Affinity on dopamine D1 receptor, competition with [3H] SCH23390. On the set-up: D1 receptor inhibition ratio (%): concentration or dose not given beside the values. Type of series: binding. As to the method:
as §1, §2, §3, §4, §5, §6, §7

Series [1] is described as follows: In vivo pharmacokinetic experiment of rats (gavage and intravenous). The note with it: rat. More on the design: species or system SD rats. As to the method:
Pharmacokinetic properties of Compound DC037029 in rats were preliminarily studied in this experiment. After the tested compound was delivered to rats by intravenous administration and intragastric administration, respectively, the whole blood samples were collected at different time point and the plasma was separated. The concentration of compound in plasma was determined by liquid chromatography-tandem mass spectrometry.
Six healthy male SD rats with the weight of 200-220 g were randomly divided into 2 groups, each of which has three rats. The rats in each group were administrated with the tested compound by gavage or intravenous injection, respectively.
The compound was dissolved in 10% DMSO/10% Tween/[…].
The rats are fasted for 12 h and can drink water ad libitum before test. 2 h after dosing, the rats ate all together. The time point for collecting blood samples and the sample processing are listed as follows.
Intragastric administration time: 0.25, 0.5, 1.0, 2.0, 3.0, 5.0, 7.0, 9.0 and 24 h after administration.
Intravenous administration time: 5 min, 0.25, 0.5, 1.0, 2.0, 3.0, 5.0, 7.0, 9.0 and 24 h after administration. At above time point, 0.3 ml venous blood was taken from retrobulbar venous plexus of the rat and loaded into heparinization tube. After centrifuged at 1000 rpm for 5 min, the plasma was separated and frozen at −20° C. in a refrigerator.

The mark [2] stands for this setting: gavage 20 mg/kg, individual animals.
The mark [3] stands for this setting: intravenous injection 10 mg/kg, average.
Where [4] appears, read: intravenous injection 10 mg/kg, individual animals.

Several values for one entry are separate records, joined by “and”; a condition that tells them apart may be missing. Identical values can stand only once.

D2 dopamine receptor, sequence (P61169 whole entry): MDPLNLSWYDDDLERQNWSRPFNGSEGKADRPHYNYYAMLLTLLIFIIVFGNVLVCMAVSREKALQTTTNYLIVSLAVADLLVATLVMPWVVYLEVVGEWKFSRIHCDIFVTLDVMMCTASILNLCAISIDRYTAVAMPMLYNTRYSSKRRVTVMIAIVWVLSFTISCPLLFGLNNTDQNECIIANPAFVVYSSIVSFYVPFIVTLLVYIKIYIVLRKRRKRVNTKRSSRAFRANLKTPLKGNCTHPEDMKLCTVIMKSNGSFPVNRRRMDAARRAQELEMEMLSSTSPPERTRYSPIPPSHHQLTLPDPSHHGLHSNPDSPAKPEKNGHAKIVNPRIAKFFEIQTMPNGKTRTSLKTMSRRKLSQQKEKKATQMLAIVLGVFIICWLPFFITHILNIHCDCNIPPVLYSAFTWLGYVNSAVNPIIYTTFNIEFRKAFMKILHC
dopamine D1 receptor, sequence (O77680 whole entry): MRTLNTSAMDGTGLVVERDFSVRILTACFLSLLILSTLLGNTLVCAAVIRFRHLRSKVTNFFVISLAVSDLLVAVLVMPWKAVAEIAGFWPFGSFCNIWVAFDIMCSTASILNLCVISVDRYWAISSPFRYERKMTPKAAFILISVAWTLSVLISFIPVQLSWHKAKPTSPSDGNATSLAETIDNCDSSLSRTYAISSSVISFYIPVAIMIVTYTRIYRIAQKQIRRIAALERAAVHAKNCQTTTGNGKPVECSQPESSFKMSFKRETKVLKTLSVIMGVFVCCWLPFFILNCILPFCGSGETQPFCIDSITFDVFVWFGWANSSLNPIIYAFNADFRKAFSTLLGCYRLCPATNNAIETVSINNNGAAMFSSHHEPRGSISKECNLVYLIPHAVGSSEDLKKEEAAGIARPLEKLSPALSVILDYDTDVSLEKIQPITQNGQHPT

As for `COc1ccc2c(c1)CCN1Cc3cc(OC)c(OC)cc3C[C@@H]21` [DC037010, S-(+3,10,11-trimethoxy-5,8,13,13a-tetrahydro-6H-dibenzo[a,g]quinolizine], the “D2 receptor inhibition ratio (%)” value on D2 dopamine receptor turned out to be 51.5%. Also, at dopamine D1 receptor, the “D1 receptor inhibition ratio (%)” value was 66.8%.
The corresponding values for `COc1cc2c(cc1OC)[C@@H]1Cc3cc(OC)c(OC)c(OC)c3[C@H](C)N1CC2` [DC037019, (8S,14S)-2,3,9,10,11-pentamethoxyl-8-methyl-5,8,13,13a-tetra-hydro-6H-dibenzo[a,g]quinolizine] are 65.3% and 10.3%.
In the same order, the values of `COc1cc2c(cc1OC)C1Cc3cc4c(cc3CN1CC2)OCO4` (racemic) [DC037014, (±)-2,3-bimethoxy-10,11-methylenedioxy-5,8,13,13a-tetrahydro-6H-dibenzo[a,g]quinolizine] are 25.8% and 58.2%.
Usually IC50 stands for the midpoint of a concentration-inhibition curve. What is called Ki is the equilibrium dissociation constant of an inhibitor or competing ligand from its target. Regarding `c1c2c(cc3c1OCO3)CN1CCc3cc4c(cc3[C@@H]1C2)OCO4` [DC037012, S-(−)-2,3,10,11-bimethylenedioxy-5,8,13,13a-tetrahydro-6H-dibenzo[a,g]quinolizine], at D2 dopamine receptor, the “D2 receptor inhibition ratio (%)” value came to 89.3%, the IC50 is 1240 nM and the Ki came out at 240 nM. In addition, at dopamine D1 receptor, the “D1 receptor inhibition ratio (%)” value was 95.8%, the IC50 was 300 nM and the inhibition constant (Ki) stood at 148 nM.
In the case of `COc1ccc2c(c1)CCN1Cc3c(cc(OC)c(OC)c3OC)CC21` (racemic) [DC037007, (±)-3,9,10,11-tetramethoxy-5,8,13,13a-tetrahydro-6H-dibenzo[a,g]quinolizine], at D2 dopamine receptor, the “D2 receptor inhibition ratio (%)” value amounted to 49.05%. Also, on dopamine D1 receptor, the “D1 receptor inhibition ratio (%)” value was determined as 87.65%, the IC50 turned out to be 2030 nM and the Ki was 1000 nM.
On to `COc1ccc(OC)c2c1C[C@H]1c3cc4c(cc3CCN1C2)OCO4` [DC037013, S-(−)-2,3-methylenedioxy-9,12-bimethoxy-5,8,13,13a-tetrahydro-6H-dibenzo[a,g]quinolizine], for which, at dopamine D1 receptor, the IC50 is 47.9 nM and the Ki is 23.6 nM.
A word on the Cmax: it is the highest concentration seen after dosing. For orientation: MRT means the average time that molecules of a dose stay in the body. For orientation: Tmax means the time from dosing to the highest level. Take `COc1cc2c(cc1O)[C@@H]1Cc3cc4c(cc3CN1CC2)OCO4` [DC037029, S-(−)-2-hydroxy-3-methoxy-10,12-methylenedioxy-5,8,13,13a-tetrahydro-6H-dibenzo[a,g]quinolizine]: the “F (absolute bioavailability)” value in series [1] (gavage 20 mg/kg) is given as 34.2%. For the same compound, the Plasma concentration in series [1] (gavage 20 mg/kg, 0.25 h, average) was 392 ng/mL; in series [1] (gavage 20 mg/kg, 0.25 h, individual animals), 268 ng/mL and 416 ng/mL and 493 ng/mL; in series [1] (gavage 20 mg/kg, 0.5 h, average) it was 445 ng/mL; in series [1] (gavage 20 mg/kg, 0.5 h, individual animals), 289 ng/mL and 494 ng/mL and 553 ng/mL; in series [1] (gavage 20 mg/kg, 1.0 h, average) it was 420 ng/mL; in series [1] (gavage 20 mg/kg, 1.0 h, individual animals), 230 ng/mL and 455 ng/mL and 575 ng/mL. The Plasma concentration is 345 ng/mL in series [1] (gavage 20 mg/kg, 2.0 h, average); 218 ng/mL and 326 ng/mL and 492 ng/mL in series [1] (gavage 20 mg/kg, 2.0 h, individual animals); 289 ng/mL in series [1] (gavage 20 mg/kg, 3.0 h, average); 231 ng/mL and 207 ng/mL and 431 ng/mL in series [1] (gavage 20 mg/kg, 3.0 h, individual animals); 266 ng/mL in series [1] (gavage 20 mg/kg, 5.0 h, average); 233 ng/mL and 236 ng/mL and 330 ng/mL in series [1] (gavage 20 mg/kg, 5.0 h, individual animals). Also, the Plasma concentration in series [1] (gavage 20 mg/kg, 7.0 h, average) is 122 ng/mL; in series [1] (gavage 20 mg/kg, 7.0 h, individual animals) it was 169 ng/mL and 80.3 ng/mL and 118 ng/mL; in series [1] (gavage 20 mg/kg, 9.0 h, average), 82.2 ng/mL; in series [1] (gavage 20 mg/kg, 9.0 h, individual animals), 91.9 ng/mL and 41.3 ng/mL and 113 ng/mL; in series [1] (gavage 20 mg/kg, 24.0 h, average) it was 4.28 ng/mL; in series [1] (gavage 20 mg/kg, 24.0 h, individual animals) it was 9.67 ng/mL and 1.26 ng/mL and 1.90 ng/mL. The Plasma concentration in series [1] (intravenous injection 10 mg/kg, 0.083 h, average) was 4194 ng/mL; in series [1] (intravenous injection 10 mg/kg, 0.083 h, individual animals), 4576 ng/mL and 4169 ng/mL and 3837 ng/mL; in series [1] (intravenous injection 10 mg/kg, 0.25 h, average), 2883 ng/mL; in series [1] (intravenous injection 10 mg/kg, 0.25 h, individual animals), 3010 ng/mL and 2766 ng/mL and 2874 ng/mL; in series [1] (intravenous injection 10 mg/kg, 0.5 h, average) it was 1942 ng/mL; in series [1] (intravenous injection 10 mg/kg, 0.5 h, individual animals) it was 2055 ng/mL and 1788 ng/mL and 1984 ng/mL. Moreover, the Plasma concentration in series [1] (intravenous injection 10 mg/kg, 1.0 h, average) was 1207 ng/mL; in series [1] (intravenous injection 10 mg/kg, 1.0 h, individual animals) it was 1211 ng/mL and 1047 ng/mL and 1365 ng/mL; in series [1] (intravenous injection 10 mg/kg, 2.0 h, average), 571 ng/mL; in series [1] (intravenous injection 10 mg/kg, 2.0 h, individual animals) it was 590 ng/mL and 527 ng/mL and 596 ng/mL; in series [1] (intravenous injection 10 mg/kg, 3.0 h, average), 255 ng/mL; in series [1] (intravenous injection 10 mg/kg, 3.0 h, individual animals), 228 ng/mL and 294 ng/mL and 243 ng/mL. Besides, the Plasma concentration is 75.3 ng/mL in series [1] (intravenous injection 10 mg/kg, 5.0 h, average); 65.0 ng/mL and 83.7 ng/mL and 77.2 ng/mL in series [1] (intravenous injection 10 mg/kg, 5.0 h, individual animals); 20.7 ng/mL in series [1] (intravenous injection 10 mg/kg, 7.0 h, average); 19.2 ng/mL and 21.1 ng/mL and 21.7 ng/mL in series [1] (intravenous injection 10 mg/kg, 7.0 h, individual animals); 8.00 ng/mL in series [1] (intravenous injection 10 mg/kg, 9.0 h, average); 7.31 ng/mL and 9.26 ng/mL and 7.41 ng/mL in series [1] (intravenous injection 10 mg/kg, 9.0 h, individual animals). Besides, the Plasma concentration was 1.76 ng/mL in series [1] (intravenous injection 10 mg/kg, 24.0 h, average); 2.26 ng/mL and 1.61 ng/mL and 1.41 ng/mL in series [1] (intravenous injection 10 mg/kg, 24.0 h, individual animals). Also, the AUC0-t in series [1] (gavage 20 mg/kg, average) was 2867 ± 798 ng·h/mL and 2867 ng·h/mL; in series [1] (setting [2]), 3771 ng·h/mL and 2570 ng·h/mL and 2260 ng·h/mL; in series [1] (setting [3]), 4196 ± 141 ng·h/mL and 4196 ng·h/mL; in series [1] (setting [4]), 4262 ng·h/mL and 4292 ng·h/mL and 4034 ng·h/mL. Besides, the “AUC0-∞” value in series [1] (gavage 20 mg/kg, average) is 2891 ng·h/mL; in series [1] (setting [2]), 3779 ng·h/mL and 2629 ng·h/mL and 2265 ng·h/mL; in series [1] (setting [3]) it was 4210 ng·h/mL; in series [1] (setting [4]) it was 4272 ng·h/mL and 4313 ng·h/mL and 4046 ng·h/mL. Also, the Cmax in series [1] (gavage 20 mg/kg, average) was 453 ± 147 ng/mL and 453 ng/mL; in series [1] (setting [2]), 575 ng/mL and 289 ng/mL and 494 ng/mL. Moreover, the MRT in series [1] (gavage 20 mg/kg, average) is 5.04 h; in series [1] (setting [2]), 4.67 h and 6.45 h and 4.00 h; in series [1] (setting [3]), 1.47 h; in series [1] (setting [4]), 1.42 h and 1.46 h and 1.53 h. Moreover, the Tmax in series [1] (gavage 20 mg/kg, average) is 0.67 ± 0.29 h and 0.67 h; in series [1] (setting [2]), 1.00 h and 0.50 h (2×). The t1/2 in series [1] (gavage 20 mg/kg, average) is 3.26 ± 0.82 h and 3.26 h; in series [1] (setting [2]), 2.70 h and 4.20 h and 2.89 h; in series [1] (setting [3]), 5.44 ± 0.85 h and 5.44 h; in series [1] (setting [4]), 4.88 h and 6.42 h and 5.01 h. Also, in series [1] (setting [3]), the “CLz (plasma clearance rate CL)” value is 39.7 ± 1.3 mL/min/kg and 39.7 mL/min/kg. For the same compound, the “Vss (steady state distribution volume)” value in series [1] (setting [3]) is 3.49 ± 0.24 L/kg and 3.49 L/kg. Further, the CLz in series [1] (setting [4]) was 39 mL/min/kg and 38.7 mL/min/kg and 41.2 mL/min/kg. Further, in series [1] (setting [4]), the Vss is 3.33 L/kg and 3.38 L/kg and 3.78 L/kg. Moreover, on dopamine D1 receptor, the IC50 was determined as 8.19 nM. Also, the Ki on dopamine D1 receptor is 4.2 nM. Moreover, on dopamine D1 receptor (summary of the tables), the “affinity on dopamine D1 receptor (in words)” value is reported as “strong affinity”.

The record behind these values is US9359372B2, “Hexahydrodibenzo[a,g]quinolizine compound, preparation method thereof, pharmaceutical composition and use thereof” (SHANGHAI INSTITUTE OF MATERIA MEDICA, CHINESE ACADEMY OF …, priority 2011, dated 2016).
